Experiments:
Abcc6−/− mice = conditions: female Abcc6−/− mice, oral, 10 mM in drinking water
Method: Briefly, mice were kept under routine laboratory conditions with a 12-hour light-dark cycle and ad libitum access to water and chow. Anesthesia was carried out by intraperitoneal injection of the mixture of Zoletil (30 mg/kg, Virbac, France), Xylazine (12.5 mg/kg, Produlab Pharma, The Netherlands) and Butorphanol (3 mg/kg, Richterpharma, Austria) during all procedures.
In this experiment calcification was induced in the myocardium and five days after we determined the Ca^2+-content of the heart.

[1] = healthy volunteers, oral, gelatin capsules, 39 mg pyrophosphate/kg
Method: To avoid the unpleasant taste we used capsulated PPi salts instead of water-based solution as the form of delivery. We tested two different capsules: gelatin and cellulose. Subsequently, we determined how PPi is absorbed in individuals affected by PXE compared to its absorption in non-PXE volunteers.
Human studies were conducted in accordance with the Declaration of Helsinki. The oral uptake studies involving healthy human volunteers (female and male) were conducted and all patient samples were handled in an anonymized form. The oral uptake study involving PXE patients involved mutation analysis confirming the diagnosis in PXE patients. The diagnosis of PXE was based on characteristic skin findings, supported by characteristic histopathology, and ocular and vascular involvement.
Gelatin capsules were obtained from Molar Chemicals (Halasztelek, Hungary), cellulose capsules were obtained from Capsuline (Davie, Fla.).
Volunteers and PXE patients (after overnight fasting) were involved in the studies. The duration of ingestion was less than one minute. Blood samples were collected from the vena cubiti before ingestion (0 min) and after 30, 60, 120 and 240 min into CTAD anticoagulated tubes (BD, Franklin Lakes, N.J.), and filtered through Centrisart I 300,000 MWCO filters (Sartorius, Frankfurt, Germany). […]

Compound | calcification of the heart (total Ca2+-content) five days after cryo-injury (Abcc6−/− mice) | GI discomfort [1]
O=P([O-])([O-])OP(=O)(O)O.[K+].[K+] [K2H2P2O7, Dipotassium Pyrophosphate] | reduce calcification to the same extent | –
O=P([O-])([O-])OP(=O)(O)O.[Na+].[Na+] [Na2H2P2O7, disodium pyrophosphate, reference compound] | reduce calcification to the same extent | reduced to the minimum
